Our source for the IC50 values is US12329739B2, “Isoflavonoid compounds and methods for the treatment of cancer” (Aardvark Therapeutics, Inc., priority 2010, dated 2025).

One assay relates to NCI-H460. The assay is described as follows: MTT proliferation assay, NCI-H460. The class given is cell-based, human. Particulars: NSCLC, NCI-H460, 120 h of exposure. Here is the method:
(§1) The human non-small cell lung adenocarcinoma lines NCI-H1299 (CRL-5803), NCI-H460 (HTB-177), NCI-H358 (CRL-5807), NCI-H838 (CRL-5844), the human colorectal adenocarcinoma lines COLO 205 (CCL-222), HCT-15 (CCL-225) and the human gastric cancer cell line NCI-N87 (CRL-5822) were cultured in RPMI 1640 medium containing 2 g/L sodium bicarbonate (Hyclone/Invitrogen) supplemented with 2 mM L-glutamine (Gibco) 1 mM sodium pyruvate (Sigma), 10 mM HEPES (Sigma) and 4500 mg/L glucose (Sigma). The human non-small cell lung adenocarcinoma line NCI-H2126 (CCL-256) was cultured in DMEM:F12(1:1) (Hyclone/Invitrogen) containing 2.5 mM L-glutamine 2.4 g/L sodium bicarbonate supplemented with 5% fetal bovine serum (FBS), an additional 2 mM L-glutamine, 15 mM HEPES, 0.005 mg/ml insulin (Sigma), 0.01 mg/ml transferrin (Sigma), 30 nM sodium selenite (Sigma), 10 nM hydrocortisone (Sigma) and 10 nM beta-estradiol (Sigma). The human colorectal adenocarcinoma line HT-29 (HTB-38) and the human gastric cancer cell lines OE-19 (#96071721) and MKN1 (JCRB0252) were cultured in RPMI 1640 media supplemented with 2 mM L-glutamine.
(§2) Proliferation Assays. IC50 values were determined for each cell line. Cells were seeded in 96-well plates at an appropriate cell density as determined from growth kinetics analysis and cultured for 5 days in the absence and presence of the test compounds. Cell proliferation was assessed after the addition of 20 μl of 3-4,5 dimethylthiazol-2,5-diphenyl tetrazolium bromide (MTT, 5 mg/ml in PBS, Sigma) for 5 hrs at 37° C. according to manufacturer's instructions. IC50 values were calculated from semi-log plots of % of control proliferation on the y-axis against log dose on the x-axis.
(§3) Anti-proliferative Activity of Isoflavonoid Derivatives. IC50 values were determined for each cell line after 120 h of exposure.

Another assay has as its system HepG2. Briefly: MTT proliferation assay, HepG2. The class given is cell-based, human. Particulars: Liver, HepG2, 120 h of exposure. How it is done: (§4) The human hepatocellular carcinoma lines HepG2 (HB-8065), SK-HEP-1 (HTB-52) and the normal human lung fibroblast line IMR-90 (CCL-186) were cultured in Minimum Essential Eagles Medium containing 2 mM L-glutamine, 2.2 g/L sodium bicarbonate, supplemented with 1 mM sodium pyruvate and 0.1 mM non-essential amino acids. The human hepatocellular carcinoma line JHH-1 (JCRB1062) was cultured in Williams E Medium (Invitrogen) containing 2.2 g/L sodium bicarbonate, supplemented with 2 mM L-glutamine. The hepatocellular carcinoma line HuH-7 (JCRB0403) was cultured in DMEM, supplemented with 2 mM L-glutamine.
as §2, §3
On the technique in general: Formazan colour is commonly taken as a measure of viable cells.

The next assay concerns LNCaP. Briefly: MTT proliferation assay, LNCaP. The class given is cell-based. Particulars: Prostate, 120 h of exposure. How it is done:
as §2, §3

A further assay concerns A2058. The assay is described as follows: MTT proliferation assay, A2058. Particulars: Melanoma, A2058, 120 h of exposure. In kind it is cell-based. Here is the method: as §2, §3
The subject of another assay is CALU3. Briefly: MTT proliferation assay, CALU3. In kind it is cell-based. Particulars: NSCLC, CALU3, 120 h of exposure. Here is the method: as §2, §3
For the next assay, the system named is 4405. The assay is described as follows: MTT proliferation assay, 4405. Particulars: Melanoma, 4405, 120 h of exposure. In kind it is cell-based. Here is the method:
as §2, §3

Another assay deals with A2780. Briefly: MTT proliferation assay, A2780. Particulars: Ovarian, A2780, 120 h of exposure. The class given is cell-based. Here is the method:
as §2, §3

The next assay concerns HuH-7. Briefly: MTT proliferation assay, HuH-7. In kind it is cell-based, human. Particulars: Liver, HuH-7, 120 h of exposure. Here is the method:
as §4, §2, §3

The next assay deals with COLO205. Briefly: MTT proliferation assay, COLO205. The class given is cell-based, human. Particulars: CRC, COLO205, 120 h of exposure. How it is done: as §1, §2, §3
The subject of a further assay is A549. The assay is described as follows: MTT proliferation assay, A549. In kind it is cell-based. Particulars: NSCLC, A549, 120 h of exposure. Here is the method: as §2, §3
In another assay the test system is MM200. Briefly: MTT proliferation assay, MM200. The class given is cell-based. Particulars: Melanoma, MM200, 120 h of exposure. How it is done:
as §2, §3

A further assay relates to SKBR-3. The assay is described as follows: MTT proliferation assay, SKBR-3. Particulars: Breast, SKBR-3, 120 h of exposure. In kind it is cell-based, human. How it is done: The human colorectal adenocarcinoma line HCT-116 (CCL-247) and the human breast adenocarcinoma line SK-BR-3 (HTB-30) were cultured in McCoy's 5a Medium (Invitrogen) containing 1.5 mM L-glutamine and 2.2 g/L sodium bicarbonate. The human colorectal adenocarcinoma line SW620 (CCL-227) was cultured in Leibovitz's L-15 Medium (Invitrogen) containing 2.05 mM L-glutamine.
as §2, §3

The test system of a further assay is SK-Hep-1. Briefly: MTT proliferation assay, SK-Hep-1. In kind it is cell-based, human. Particulars: Liver, SK-Hep-1, 120 h of exposure. Here is the method:
as §4, §2, §3

The subject of another assay is PC3. The assay is described as follows: MTT proliferation assay, PC3. In kind it is cell-based. Particulars: Prostate, PC3, 120 h of exposure. Here is the method:
as §2, §3

For a further assay, the system named is DU145. Briefly: MTT proliferation assay, DU145. The class given is cell-based. Particulars: Prostate, DU145, 120 h of exposure. How it is done:
as §2, §3

The test system of the next assay is MDA-MB-468. The assay is described as follows: MTT proliferation assay, MDA-MB-468. Particulars: Breast, MDA-MB-468, 120 h of exposure. The class given is cell-based, human. Here is the method: The human gastric cancer cell line AGS (CRL-1739) was cultured in Hams F-12K (Kaighans modification) medium containing 2 mM L-glutamine, 2.5 g/L sodium bicarbonate and 2 mM sodium pyruvate. The human breast adenocarcinoma line MDA-MB-468 (HTB-132) was cultured in DMEM:F12 (1:1) medium containing 2.5 mM L-glutamine, 2.4 g/L sodium bicarbonate, supplemented with an additional 2 mM L-glutamine.
as §2, §3

The next assay concerns R-182. Briefly: MTT proliferation assay, R-182. The class given is cell-based. Particulars: Ovarian, R-182, 120 h of exposure.
Excerpt: Tissue culture. The multidrug resistant primary epithelial ovarian cancer cell line R-182 TARA was a gift from Dr. Gil Mor (Yale University, New Haven, CT, USA). This cell line was derived by explant from ovarian tumors and cultured as previously described. All other cell lines were purchased from American Type Culture Collection (ATCC, Manassas, VA, USA) with the exception of MKN1, HuH-7, JHH-1, which were purchased from the Japanese Collection of Research Bioresources (JCRB, Osaka, Japan), and OE19 which was purchased from the European Collection of Cell Cultures (ECACC, Salisbury, UK).
as §2, §3

The subject of a further assay is CP70. Briefly: MTT proliferation assay, CP70. In kind it is cell-based. Particulars: Ovarian, CP70, 120 h of exposure. How it is done: as §2, §3
[1] abbreviates: Homo sapiens, MDA-MB-468, 120 h.

Regarding `Cc1cc([C@H]2c3ccc(O)c(C)c3OC[C@H]2c2ccc(O)cc2)ccc1O` (relative stereo) [l-6, l-cis-3-(4-hydroxyphenyl)-4-(4-hydroxy-3-methylphenyl)-8-methylchroman-7-ol], the concentration for half-maximal inhibition (IC50) in the assay with NCI-H460, with HepG2, in the assay with LNCaP, in the assay on A2058, in the assay on CALU3 and in the assay on 4405 was at least 10 µM in each case. Also, the IC50 (as a rule, the concentration at which inhibition is half-maximal) in the assay on A2780 is at least 10 µM; in the assay with HuH-7 it was at least 10 µM; in the assay with COLO205, at least 10 µM; in the assay on A549, at least 10 µM; in the assay with MM200, at least 10 µM; with SKBR-3, 1.6 to 10 µM. The IC50 in the assay on SK-Hep-1, with PC3, with DU145, with MDA-MB-468, with R-182 and in the assay on CP70 was at least 10 µM each time.

As to `Cc1c(O)ccc2c1OC[C@H](c1ccc(O)cc1)[C@@H]2c1ccc(O)cc1` [l-5, l-cis-3-(4-hydroxyphenyl)-4-(4-hydroxyphenyl)-8-methylchroman-7-ol], the IC50 is at least 10 µM in the assay on NCI-H460 (Homo sapiens); at least 10 µM with HepG2 (Homo sapiens); at least 10 µM with LNCaP (Homo sapiens); at least 10 µM with A2058 (Homo sapiens, A2058, 120 h); at least 10 µM in the assay with CALU3 (Homo sapiens, Calu-3); at least 10 µM in the assay with 4405. The IC50 with A2780 (Homo sapiens, A2780, 120 h) was at least 10 µM; in the assay on HuH-7 (Homo sapiens), at least 10 µM; in the assay with COLO205 (Homo sapiens, COLO 205), at least 10 µM; with A549 (Homo sapiens), at least 10 µM; with MM200, at least 10 µM; with SKBR-3 (Homo sapiens, SK-BR-3, 120 h) it was at least 10 µM. Moreover, the IC50 is at least 10 µM with SK-Hep-1 (Homo sapiens, SK-HEP1); at least 10 µM with PC3 (Homo sapiens, PC-3, 120 h); at least 10 µM in the assay on DU145 (Homo sapiens, DU-145); at least 10 µM with MDA-MB-468 (setting [1]); at least 10 µM in the assay with R-182; at least 10 µM in the assay on CP70 (120 h).

Turning to `Cc1c(O)ccc2c1OCC(c1ccc(O)cc1)C2c1ccc(O)cc1` (stereo not drawn) [Compound 5, 3-(4-hydroxyphenyl)-4-(4-hydroxyphenyl)-8-methylchroman-7-ol], the IC50 in the assay with NCI-H460 (Homo sapiens) is 0.15 to 0.5 µM; in the assay with HepG2 (Homo sapiens), at most 0.15 µM; in the assay with LNCaP (Homo sapiens) it was 0.15 to 0.5 µM; in the assay on A2058 (Homo sapiens, A2058, 120 h), at most 0.15 µM; in the assay with CALU3 (Homo sapiens, Calu-3), at most 0.15 µM; with 4405, 0.15 to 0.5 µM. The IC50 in the assay with A2780 (Homo sapiens, A2780, 120 h) was 0.15 to 0.5 µM; in the assay with HuH-7 (Homo sapiens) it was 0.15 to 0.5 µM; in the assay with COLO205 (Homo sapiens, COLO 205), 1.6 to 10 µM; in the assay with A549 (Homo sapiens) it was 0.15 to 0.5 µM; in the assay on MM200, 0.15 to 0.5 µM; in the assay with SKBR-3 (Homo sapiens, SK-BR-3, 120 h), at most 0.15 µM. Further, the IC50 with SK-Hep-1 (Homo sapiens, SK-HEP1) was 0.15 to 0.5 µM; in the assay with PC3 (Homo sapiens, PC-3, 120 h), 0.15 to 0.5 µM; with DU145 (Homo sapiens, DU-145), 0.15 to 0.5 µM; with MDA-MB-468 (setting [1]), 0.15 to 0.5 µM; in the assay on R-182 it was 0.15 to 0.5 µM; in the assay on CP70 (120 h) it was at most 0.15 µM.
